Data published in PubChem BioAssay AID2060502 (Molecular Pharmacology Branch, DTP, NCI, 2025).
pIC50: −log10 of the molar value. Where “and” joins values, the source holds several entries; their conditions need not be identical. Equal entries are not always repeated.

System: 885724-159-R-J1-PDC complex spheroid viability
Assay: Anticancer human tumor 885724-159-R-J1-PDC patient-derived pancreatic adenocarcinoma cell line growth inhibition [GQUAD]
Conditions: for viability, T/C: stronger effect = lower value
Excerpt: DNA G-quadruplex Stabilizer Agents in Combinations in Complex Spheroids
A high-throughput screen of multi-cell type tumor spheroids was designed to identify active combinations of DNA G-quadruplex stabilizer agents and targeted small molecules. Complex spheroids include a stromal component modeled by human endothelial cells (HUVEC) and fibroblasts modeled by human mesenchymal stem cells (MSCs). The concentration ranges selected for each drug and investigational agent were based upon clinically achievable concentrations if the clinical Cmax of the agent was known.
Compounds. The drugs and investigational agents: pidnarulex (CX-5461; NSC782164), APTO-253 (NSC789042), BRACO-19 (NSC847499), peposertib (NSC802822), ceralasertib (NSC780249), elimusertib (NSC800525), camonsertib (NSC841442), AZD-1390 (NSC803789), olaparib (NSC753686), talazoparib (NSC767125), ART-558 (NSC835418), sotorasib (NSC818433), MRTX-1133 (NSC836407), SN-38 (NSC673596), topotecan (NSC609699), etoposide (NSC141540), doxorubicin (NSC123127), gemcitabine (NSC613327), 5-fluorouracil (NSC19893), paclitaxel (NSC125973), vemurafenib (NSC761431), panobinostat (NSC761190), R-306465 (JNJ-16241199; NSC773264), adavosertib (NSC754352), TP-3654 (NSC805149), carboplatin (NSC241240), KSQ-4279 (NSC840948), and staurosporine (NSC755774) were obtained from the National Cancer Institute (NCI) Developmental Therapeutics Program Chemical Repository (34). The FDA-approved anticancer drug set is available from the NCI Developmental Therapeutics Program. […] The stock solutions were prepared in dimethyl sulfoxide (DMSO, Sigma-Aldrich, St. Louis, MO, cat. D2650) at 800-fold the tested concentration and stored at -70 degrees C prior to their use. All drugs and investigational agents were tested over a range starting from a high concentration at or near the clinical Cmax and decreasing in half-log increments. If the clinical Cmax for an agent had not been determined, the highest concentration tested was 10 microM.
2.3 Cell Culture. All cells were maintained in an incubator at 37 degrees C and 5% CO2 with 95% humidity. The PDC lines were cultured according to standard operating procedures established by the NCI PDMR. All PDCs were thawed and cultured in Matrigel-coated flasks prepared with a working solution of 1X Ham's F-12 nutrient mix, without supplementation (Invitrogen, cat. 11765054), 100 U/mL penicillin-streptomycin (Invitrogen, cat. 15140122), and 2.5% Matrigel (Corning Inc., cat. 354248) for the first three passages. The 857933-349-R-J2-PDC line was cultured in 6C/Colon 1B media, which includes advanced DMEM/F-12 (Thermo Fisher Scientific, cat. 12634028), 10 mM HEPES (Thermo Fisher Scientific, cat. 15630080), 1X GlutaMAX supplement (Thermo Fisher Scientific, cat. 35050061), 0.1 mg/mL primocin (InvivoGen, cat. ant-pm-2), 10% defined fetal bovine serum, heat inactivated (HyClone Laboratories Inc., cat. SH30070.03HI), 50% L-WRN conditioned media (ATCC, cat. CRL-3276), 1.25 mM N-Acetyl-L-cysteine (Sigma-Aldrich, cat. A9165), 10 mM nicotinamide (Sigma-Aldrich, cat. N0636), 1X B-27 supplement (Thermo Fisher Scientific, cat. 17504044), 1X N-2 supplement (Thermo Fisher Scientific, cat. 17502048), 10 microM Y-27632 dihydrochloride (Tocris Bioscience, cat. 1254), and 50 ng/mL human EGF recombinant protein (Thermo Fisher Scientific, cat. PHG0311). The 485176-168-R4-J1-PDC line was cultured in Panc media, which includes all 6C/Colon 1B media components plus 100 ng/mL human FGF-10 (Thermo Fisher Scientific, cat. 100-26), 500 nM SB-431542 (Selleckchem, cat. S1067), and gastrin (Tocris, cat. 3006).
[…]

[1] = curve of first compound, second compound 0.0316 µM
[2] = curve of first compound, second compound 0.1 µM
[3] = curve of first compound, second compound 0.316 µM
[4] = curve of first compound, second compound 1 µM
[5] = curve of first compound, second compound 3.16 µM
[6] = curve of first compound, second compound 10 µM
[7] = second compound 0.0316 µM, first compound 0.0316 µM
[8] = second compound 0.0316 µM, first compound 0.1 µM
[9] = second compound 0.0316 µM, first compound 0.316 µM
[10] = second compound 0.0316 µM, first compound 1 µM
[11] = second compound 0.0316 µM, first compound 3.16 µM
[12] = second compound 0.0316 µM, first compound 10 µM
[13] = second compound 0.1 µM, first compound 0.0316 µM
[14] = second compound 0.1 µM, first compound 0.1 µM
[15] = second compound 0.1 µM, first compound 0.316 µM
[16] = second compound 0.1 µM, first compound 1 µM
[17] = second compound 0.1 µM, first compound 3.16 µM
[18] = second compound 0.1 µM, first compound 10 µM
[19] = second compound 0.316 µM, first compound 0.0316 µM
[20] = second compound 0.316 µM, first compound 0.1 µM
[21] = second compound 0.316 µM, first compound 0.316 µM
[22] = second compound 0.316 µM, first compound 1 µM
[23] = second compound 0.316 µM, first compound 3.16 µM
[24] = second compound 0.316 µM, first compound 10 µM
[25] = second compound 1 µM, first compound 0.0316 µM
[26] = second compound 1 µM, first compound 0.1 µM
[27] = second compound 1 µM, first compound 0.316 µM
[28] = second compound 1 µM, first compound 1 µM
[29] = second compound 1 µM, first compound 3.16 µM
[30] = second compound 1 µM, first compound 10 µM
[31] = second compound 3.16 µM, first compound 0.0316 µM
[32] = second compound 3.16 µM, first compound 0.1 µM
[33] = second compound 3.16 µM, first compound 0.316 µM
[34] = second compound 3.16 µM, first compound 1 µM
[35] = second compound 3.16 µM, first compound 3.16 µM
[36] = second compound 3.16 µM, first compound 10 µM
[37] = second compound 10 µM, first compound 0.0316 µM
[38] = second compound 10 µM, first compound 0.1 µM
[39] = second compound 10 µM, first compound 0.316 µM
[40] = second compound 10 µM, first compound 1 µM
[41] = second compound 10 µM, first compound 3.16 µM
[42] = second compound 10 µM, first compound 10 µM
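Also: spheroids exposed to agents for seven days before readout.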
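For viability, T/C in this document: percent of vehicle control viability where 100% = DMSO wells.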

Compound `CC(C)n1c(=O)n(C)c2cnc3cc(F)c(-c4ccc(OCCCN5CCCCC5)nc4)cc3c21` + CN(C)c1ccc(Nc2c3ccc(NC(=O)CCN4CCCC4)cc3nc3cc(NC(=O)CCN4CCCC4)ccc23)cc1 has a pIC50 [1] of under 5.00, a pIC50 [2] of under 5.00 and a pIC50 [3] of under 5.00. The pIC50 [4] was under 5.00, the pIC50 [5] was 5.10 and the pIC50 [6] was 5.92. It also gave a viability, T/C [7] of 105%, a viability, T/C [8] of 111% and a viability, T/C [9] of 100%. It also gave a viability, T/C [10] of 91.7%, a viability, T/C [11] of 97% and a viability, T/C [12] of 56%. It also gave a viability, T/C [13] of 109%, a viability, T/C [14] of 107% and a viability, T/C [15] of 112%. The viability, T/C [16] was 101%, the viability, T/C [17] was 88.2% and the viability, T/C [18] was 68.2%. It also gave a viability, T/C [19] of 107%, a viability, T/C [20] of 101% and a viability, T/C [21] of 92.2%. It also gave a viability, T/C [22] of 91.3%, a viability, T/C [23] of 85.2% and a viability, T/C [24] of 56.2%. The viability, T/C [25] was 92.6%, the viability, T/C [26] was 83.4% and the viability, T/C [27] was 101%. The viability, T/C [28] was 82.7%, the viability, T/C [29] was 74.5% and the viability, T/C [30] was 54.3%. It also gave a viability, T/C [31] of 83.7%, a viability, T/C [32] of 80.2% and a viability, T/C [33] of 86.4%. The viability, T/C [34] was 64.1%, the viability, T/C [35] was 66.6% and the viability, T/C [36] was 46%. The viability, T/C [37] was 78.7%, the viability, T/C [38] was 84.5% and the viability, T/C [39] was 60.3%. It also gave a viability, T/C [40] of 55.1%, a viability, T/C [41] of 33.3% and a viability, T/C [42] of 7.2%.
`CC1COCCN1c1cc(C2(O)CC3CCC(C2)O3)c2cnn(-c3ccn[nH]3)c2n1` (stereo not drawn) + CN(C)c1ccc(Nc2c3ccc(NC(=O)CCN4CCCC4)cc3nc3cc(NC(=O)CCN4CCCC4)ccc23)cc1 showed a pIC50 [1] of 5.83, a pIC50 [2] of 5.85 and a pIC50 [3] of 6.31. It also gave a pIC50 [4] of 6.06, a pIC50 [5] of 6.54 and a pIC50 [6] of 6.35. For the same compound, the viability, T/C [7] was 89%, the viability, T/C [8] was 74% and the viability, T/C [9] was 69.3%. The viability, T/C [10] was 53.1%, the viability, T/C [11] was 41.6% and the viability, T/C [12] was 33.9%. For the same compound, the viability, T/C [13] was 95.4%, the viability, T/C [14] was 83.8% and the viability, T/C [15] was 61.5%. It also gave a viability, T/C [16] of 55.8%, a viability, T/C [17] of 42.8% and a viability, T/C [18] of 36.8%. The viability, T/C [19] was 80.9%, the viability, T/C [20] was 83.5% and the viability, T/C [21] was 55.4%. For the same compound, the viability, T/C [22] was 46.4%, the viability, T/C [23] was 44.9% and the viability, T/C [24] was 33%. It also gave a viability, T/C [25] of 74.9%, a viability, T/C [26] of 62.5% and a viability, T/C [27] of 65.1%. It also gave a viability, T/C [28] of 45.6%, a viability, T/C [29] of 39.9% and a viability, T/C [30] of 32.6%. For the same compound, the viability, T/C [31] was 80.9%, the viability, T/C [32] was 65.4% and the viability, T/C [33] was 47.6%. It also gave a viability, T/C [34] of 38.4%, a viability, T/C [35] of 33.4% and a viability, T/C [36] of 29.5%. For the same compound, the viability, T/C [37] was 70.2%, the viability, T/C [38] was 66.7% and the viability, T/C [39] was 49.6%. The viability, T/C [40] was 42.4%, the viability, T/C [41] was 35.6% and the viability, T/C [42] was 23.3%.
In the case of `COc1cc(C2c3cc4c(cc3C(OC3OC5COC(C)OC5C(O)C3O)C3COC(=O)C23)OCO4)cc(OC)c1O` (stereo not drawn), the viability, T/C (compound 0.0316 µM) was 91.7% and 104% and 96.9%, the viability, T/C (compound 0.1 µM) was 109% and 103% and 96.3% and the viability, T/C (compound 0.316 µM) was 97.6% and 98.6% and 86.9%. The viability, T/C (compound 1 µM) was 88.8% and 96.8% and 89%, the viability, T/C (compound 3.16 µM) was 88.5% and 77.7% and 77.3% and the viability, T/C (compound 10 µM) was 85.7% and 76.8% and 76.7%. It also gave a pIC50 (curve of compound) of under 5.00.
`CC(=O)O[C@H]1C(=O)[C@@]2(C)[C@H]([C@H](OC(=O)c3ccccc3)[C@]3(O)C[C@H](OC(=O)[C@H](O)[C@@H](NC(=O)c4ccccc4)c4ccccc4)C(C)=C1C3(C)C)[C@]1(OC(C)=O)CO[C@@H]1C[C@@H]2O` + CN(C)c1ccc(Nc2c3ccc(NC(=O)CCN4CCCC4)cc3nc3cc(NC(=O)CCN4CCCC4)ccc23)cc1 gave a pIC50 [1] of under 5.00, a pIC50 [2] of under 5.00 and a pIC50 [3] of under 5.00. The pIC50 [4] was under 5.00, the pIC50 [5] was under 5.00 and the pIC50 [6] was under 5.00. It also gave a viability, T/C [7] of 92.9%, a viability, T/C [8] of 82.8% and a viability, T/C [9] of 81.8%. It also gave a viability, T/C [10] of 85.3%, a viability, T/C [11] of 88% and a viability, T/C [12] of 98.7%. It also gave a viability, T/C [13] of 94%, a viability, T/C [14] of 92.7% and a viability, T/C [15] of 82.3%. For the same compound, the viability, T/C [16] was 89.8%, the viability, T/C [17] was 83.9% and the viability, T/C [18] was 96.8%. The viability, T/C [19] was 81.7%, the viability, T/C [20] was 82.4% and the viability, T/C [21] was 83.8%. It also gave a viability, T/C [22] of 76.7%, a viability, T/C [23] of 85.5% and a viability, T/C [24] of 81.1%. It also gave a viability, T/C [25] of 77.4%, a viability, T/C [26] of 64.3% and a viability, T/C [27] of 78.6%. For the same compound, the viability, T/C [28] was 68%, the viability, T/C [29] was 84.4% and the viability, T/C [30] was 82.5%. The viability, T/C [31] was 77.9%, the viability, T/C [32] was 56.1% and the viability, T/C [33] was 63.6%. The viability, T/C [34] was 66.2%, the viability, T/C [35] was 66.6% and the viability, T/C [36] was 72.1%. It also gave a viability, T/C [37] of 66.4%, a viability, T/C [38] of 69.6% and a viability, T/C [39] of 65.4%. The viability, T/C [40] was 67.4%, the viability, T/C [41] was 69.6% and the viability, T/C [42] was 67.7%.
